Results published in BindingDB's records for PubMed 36846363 (Al-Ahliyya Amman University, 2023).

Assay: Antagonist activity at P2Y12 receptor in human blood platelets assessed as inhibition of ADP-induced platelet aggregation compound preincubated with blood for 5 mins prior to ADP addition by electrode aggregometry assay

IC50 [µM]	Structure (SMILES)
6.49	O=C(CCC(=O)Nc1ccc2[nH]c3ccccc3c(=O)c2c1)Nc1ccc2[nH]c3ccccc3c(=O)c2c1
35	O=C(CCCCCCCC(=O)Nc1ccc2[nH]c3ccccc3c(=O)c2c1)Nc1ccc2[nH]c3ccccc3c(=O)c2c1
4.2	CCOC(=O)c1cc(NC(=O)c2cc(NC(=O)c3cc(NC(=O)c4c(-c5ccccc5)noc4C)cn3C)cn2C)cn1C
